Experimental data as given in patent US20260007133A1, “HERBICIDAL COMPOSITION COMPRISING AZINE COMPOUNDS” (BASF SE, priority 2022, published 2026).

Assays:
Assay type in all cases: in vivo
[1] = test system: Commelina benghalensis; assay: Greenhouse pre-emergence (PRE) herbicidal test on COMBE
Description: (§1) The culture containers used were plastic pots containing loamy sand with approximately 3.0% of humus as substrate. The seeds of the test plants were sown separately for each species.
(§2) The containers were irrigated gently to promote germination and growth and subsequently covered with transparent plastic hoods until the plants had rooted.
(§3) Depending on the species, the plants were kept at 10-25° C. and 20-35° C., respectively.
(§4) The test period extended over 2 to 4 weeks. During this time, the plants were tended and their response to the individual treatments was evaluated.
(§5) Evaluation was carried out using a scale from 0 to 100. 100 means no emergence of the plants, or complete destruction of at least the above-ground parts, and 0 means no damage or normal course of growth. A good herbicidal activity is given at values of at least 70, and very good herbicidal activity is given at values of at least 85.
(§6) As indicated application was either post emergent (POST) at the respective growth stage (GS) of the weed (BBCH code), or pre-emergent (PRE). […]

[2] = test system: Abutilon theophrasti; assay: Greenhouse pre-emergence (PRE) herbicidal test on ABUTH
Description: as §1, §2, §3, §4, §5, §6

[3] = test system: Geranium pusillum; assay: Greenhouse post-emergence (POST) herbicidal test on GERPU; settings: Geranium pusillum, post-emergence
Description: as §1
(§7) For the post-emergence treatment, the test plants were grown to a plant height of from 3 to 15 cm, depending on the plant habit, and only then treated with the active compounds which had been suspended or emulsified in water. To this end, the test plants were either sown directly, and grown in the same containers, or they were first grown separately as seedlings and transplanted into the test containers a few days prior to treatment.
as §3, §4, §5
(§8) If not stated differently, the respective components A and B, and if appropriate, C were formulated as a 5% by weight strength emulsion concentrate and, with addition of the amount of solvent system, introduced into the spray liquor used for applying the active compound.
as §6

[4] = test system: Digitaria sanguinalis; assay: Greenhouse post-emergence (POST) herbicidal test on DIGSA
Description: as §1, §7, §3, §4, §5, §8, §6

[5] = test system: Echinochloa crus-galli; assay: Greenhouse post-emergence (POST) herbicidal test on ECHCG
Description: as §1, §7, §3, §4, §5, §8, §6

[6] = test system: Ambrosia artemisiifolia; assay: Greenhouse pre-emergence (PRE) herbicidal test on AMBEL
Description: as §1, §2, §3, §4, §5, §6

[7] = test system: Lolium multiflorum; assay: Greenhouse pre-emergence (PRE) herbicidal test on LOLMU
Description: as §1, §2, §3, §4, §5, §6

[8] = test system: Euphorbia heterophylla; assay: Greenhouse pre-emergence (PRE) herbicidal test on EPHHL; settings: Euphorbia heterophylla, pre-emergence
Description: as §1, §2, §3, §4, §5, §6

[9] = test system: Alopecurus myosuroides; assay: Greenhouse pre-emergence (PRE) herbicidal test on ALOMY; settings: for % activity: PRE
Description: as §1, §2, §3, §4, §5, §6

[10] = test system: Abutilon theophrasti; assay: Greenhouse post-emergence (POST) herbicidal test on ABUTH
Description: as §1, §7, §3, §4, §5, §8, §6

[11] = Digitaria sanguinalis, post-emergence, read-out: % activity
[12] = PRE, use rate 0.25 gai/ha, 20 DAT

For `CCNc1nc(Cl)nc(NC(C)C)n1` [Atrazine, atrazine], which inhibition at 100 g/ha ([1]; Commelina benghalensis, pre-emergence, 480 h, PRE, COMBE, use rate 100 gai/ha, 20 DAT) is on record?
Its inhibition at 100 g/ha is 25%.

And the inhibition at 50 g/ha ([2]; Abutilon theophrasti, pre-emergence, 480 h, PRE, ABUTH, use rate 50 gai/ha, 20 DAT)?
The inhibition at 50 g/ha was 0%.

And the inhibition at 50 g/ha ([3]; 480 h, POST, GERPU, use rate 50 gai/ha, 20 DAT)?
The inhibition at 50 g/ha was 30%.

What about the inhibition at 100 g/ha ([3]; 480 h, POST, GERPU, use rate 100 gai/ha, 20 DAT, read-out: % activity) of the same molecule?
The inhibition at 100 g/ha was 75%.

What does the source list for `CCCCOC(=O)[C@@H](C)Oc1ccc(Oc2ccc(C#N)cc2F)cc1` [Cyhalofop-Butyl, cyhalofop-butyl]?
inhibition at 6.25 g/ha [4, 11]: 35%; inhibition at 25 g/ha [4, 11]: 70%; inhibition at 6.25 g/ha ([5]; Echinochloa crus-galli, post-emergence, read-out: % activity): 80%

Which results are given for `CCOC(=O)COc1ncccc1Oc1cc(-n2c(=O)cc(C(F)(F)F)n(C)c2=O)c(F)cc1Cl` [Epyrifenacil, epyrifenacil]?
% activity ([4]; DIGSA POST, use rate 0.5 gai/ha): 20%; % activity ([4]; DIGSA POST, use rate 1 gai/ha): 55%; % activity ([5]; ECHCG POST, use rate 1 gai/ha): 45%

With `CCOC1Oc2ccc(OS(C)(=O)=O)cc2C1(C)C` (centres unmarked) [Ethofumesate, ethofumesate] as the molecule, how does the inhibition at 250 g/ha ([6]; Ambrosia artemisiifolia, pre-emergence, 480 h, PRE, use rate 250 gai/ha, 20 DAT) read?
Its inhibition at 250 g/ha is 0%.

And the inhibition at 1000 g/ha ([7]; Lolium multiflorum, pre-emergence, 480 h, PRE, use rate 1000 gai/ha, 20 DAT)?
Its inhibition at 1000 g/ha is 60%.

`CCc1cnc(C2=NC(C)(C(C)C)C(=O)N2)c(C(=O)O)c1` (centres unmarked) [Imazethapyr, imazethapyr] was tested. Which inhibition at […] ([6]; Ambrosia artemisiifolia, pre-emergence, PRE, AMBEL, use rate 7.5 gai/ha, read-out: % activity) did it give?
Its inhibition at […] is 0%.

And the inhibition at 15 g/ha ([6]; Ambrosia artemisiifolia, pre-emergence, PRE, AMBEL, use rate 15 gai/ha)?
The inhibition at 15 g/ha was 10%.

What about the inhibition at […] ([1]; Commelina benghalensis, pre-emergence, PRE, COMBE, use rate 7.5 gai/ha, read-out: % activity) of the same molecule?
The inhibition at […] was 30%.

And the inhibition at 15 g/ha ([1]; Commelina benghalensis, pre-emergence, PRE, COMBE, use rate 15 gai/ha)?
Its inhibition at 15 g/ha is 70%.

What about the inhibition at […] ([2]; Abutilon theophrasti, pre-emergence, PRE, ABUTH, use rate 7.5 gai/ha, read-out: % activity) of the same molecule?
Its inhibition at […] is 60%.

What about the inhibition at 15 g/ha ([7]; Lolium multiflorum, pre-emergence, PRE, LOLMU, use rate 15 gai/ha) of the same molecule?
Its inhibition at 15 g/ha is 40%.

Which results are given for `CS(=O)(=O)c1cc(C(F)(F)F)ccc1C(=O)c1cnoc1C1CC1` [Isoxaflutole, isoxaflutole]?
inhibition at 6.3 g/ha ([6]; Ambrosia artemisiifolia, pre-emergence, AMBEL PRE, use rate 6.3 gai/ha): 25%; inhibition at 6.3 g/ha ([8]; EPHHL PRE, use rate 6.3 gai/ha): 45%; inhibition at 25 g/ha ([8]; EPHHL PRE, use rate 25 gai/ha): 75%; inhibition at 6.3 g/ha ([2]; Abutilon theophrasti, pre-emergence, ABUTH PRE, use rate 6.3 gai/ha): 45%; inhibition at 6.3 g/ha ([9]; Alopecurus myosuroides, pre-emergence, ALOMY PRE, use rate 6.3 gai/ha): 0%; inhibition at 25 g/ha ([9]; Alopecurus myosuroides, pre-emergence, ALOMY PRE, use rate 25 gai/ha): 0%; inhibition at 6.3 g/ha ([7]; Lolium multiflorum, pre-emergence, LOLMU PRE, use rate 6.3 gai/ha): 0%

What does the source list for `COC(=O)c1ccc(CNS(C)(=O)=O)cc1S(=O)(=O)NC(=O)Nc1nc(OC)cc(OC)n1` [Mesosulfuron-Methyl, mesosulfuron-methyl]?
% activity [1, 12]: 35%; % activity ([9]; use rate 0.25 gai/ha, 20 DAT): 0%; % activity ([9]; use rate 1 gai/ha, 20 DAT): 10%; % activity [7, 12]: 0%; % activity ([7]; PRE, use rate 1 gai/ha, 20 DAT): 0%

How did the inhibition at 4 g/ha ([1]; Commelina benghalensis, pre-emergence, COMBE PRE, use rate 4 gai/ha) turn out when `CS(=O)(=O)c1ccc(C(=O)C2C(=O)CCCC2=O)c([N+](=O)[O-])c1` [Mesotrione, mesotrione] was run?
Its inhibition at 4 g/ha is 25%.

What about the inhibition at 4 g/ha ([8]; EPHHL PRE, use rate 4 gai/ha) of the same molecule?
Its inhibition at 4 g/ha is 20%.

And the inhibition at 16 g/ha ([8]; EPHHL PRE, use rate 16 gai/ha)?
The inhibition at 16 g/ha was 45%.

For `C[C@@H](Oc1ccc(Oc2nc3ccc(Cl)cc3o2)cc1)C(=O)N(C)c1ccccc1F` [Metamifop, metamifop], which “% activity” value ([4]; DIGSA POST, use rate 25 gai/ha) is on record?
Its value is 85%.

And the “% activity” value ([5]; ECHCG POST, use rate 6.25 gai/ha)?
The value was 50%.

How did the inhibition at 31.25 g/ha ([1]; Commelina benghalensis, pre-emergence, COMBE PRE, use rate 31.25 gai/ha) turn out when `CSc1nnc(C(C)(C)C)c(=O)n1N` [Metribuzin, metribuzin] was run?
The inhibition at 31.25 g/ha was 10%.

What about the inhibition at 62.5 g/ha ([1]; Commelina benghalensis, pre-emergence, COMBE PRE, use rate 62.5 gai/ha) of the same molecule?
The inhibition at 62.5 g/ha was 20%.

What about the inhibition at 31.25 g/ha ([3]; GERPU POST, use rate 31.25 gai/ha) of the same molecule?
Its inhibition at 31.25 g/ha is 70%.

Which results are given for `COc1cnc(OC)n2nc(NS(=O)(=O)c3c(OCC(F)F)cccc3C(F)(F)F)nc12` [Penoxsulam, penoxsulam]?
inhibition at 4 g/ha ([10]; Abutilon theophrasti, post-emergence, ABUTH POST, use rate 4 gai/ha): 0%; inhibition at 2 g/ha ([4]; Digitaria sanguinalis, post-emergence, DIGSA POST, use rate 2 gai/ha, read-out: % activity): 0%; inhibition at 4 g/ha ([4]; Digitaria sanguinalis, post-emergence, DIGSA POST, use rate 4 gai/ha): 10%; inhibition at 2 g/ha ([5]; Echinochloa crus-galli, post-emergence, ECHCG POST, use rate 2 gai/ha, read-out: % activity): 10%; inhibition at 4 g/ha ([5]; Echinochloa crus-galli, post-emergence, ECHCG POST, use rate 4 gai/ha): 35%

With `CCCN(CCC)C(=O)SCc1ccccc1` [Prosulfocarb, prosulfocarb] as the molecule, how does the pest or weed control at 600 g/ha ([6]; Ambrosia artemisiifolia, pre-emergence, 480 h, PRE, AMBEL, Prosulfocarb solo 600 gai/ha, 20 DAT) read?
The pest or weed control at 600 g/ha was 10%.

And the pest or weed control at 600 g/ha ([4]; Digitaria sanguinalis, post-emergence, 480 h, POST, DIGSA, Prosulfocarb solo 600 gai/ha, 20 DAT)?
The pest or weed control at 600 g/ha was 5%.

What about the pest or weed control at 150 g/ha ([8]; 480 h, PRE, EPHHL, Prosulfocarb solo 150 gai/ha, 20 DAT) of the same molecule?
The pest or weed control at 150 g/ha was 5%.

And the pest or weed control at 600 g/ha ([8]; 480 h, PRE, EPHHL, Prosulfocarb solo 600 gai/ha, 20 DAT)?
Its pest or weed control at 600 g/ha is 5%.

What about the pest or weed control at 600 g/ha ([2]; Abutilon theophrasti, pre-emergence, 480 h, PRE, ABUTH, Prosulfocarb solo 600 gai/ha, 20 DAT) of the same molecule?
Its pest or weed control at 600 g/ha is 40%.

What about the pest or weed control at 150 g/ha ([7]; Lolium multiflorum, pre-emergence, 480 h, PRE, LOLMU, Prosulfocarb solo 150 gai/ha, 20 DAT) of the same molecule?
Its pest or weed control at 150 g/ha is 15%.

And the pest or weed control at 600 g/ha ([7]; Lolium multiflorum, pre-emergence, 480 h, PRE, LOLMU, Prosulfocarb solo 600 gai/ha, 20 DAT)?
Its pest or weed control at 600 g/ha is 20%.

What about the pest or weed control at 600 g/ha ([3]; 480 h, POST, GERPU, Prosulfocarb solo 600 gai/ha, 20 DAT) of the same molecule?
Its pest or weed control at 600 g/ha is 20%.

For `C#CCN1C(=O)C(F)(F)Oc2cc(F)c(-n3c(=O)n(C)c(=S)n(C)c3=O)cc21` [Trifludimoxazin, trifludimoxazin], which “% activity” value ([10]; POST, ABUTH, use rate 0.5 gai/ha) is on record?
Its value is 80%.

And the “% activity” value ([6]; PRE, AMBEL, use rate 0.5 gai/ha)?
The value was 0%.

And the “% activity” value ([4]; POST, DIGSA, use rate 1 gai/ha)?
The value was 30%.

And the “% activity” value ([2]; PRE, ABUTH, use rate 0.5 gai/ha)?
Its value is 0%.

And the “% activity” value ([9]; ALOMY, use rate 0.5 gai/ha)?
Its value is 10%.
